Results: paper PMC9325410 (Clinical Pharmacology and Therapeutics, 2022)
Where two headings read alike, the source gives them in different places.

Assays:
OATP1B1/1B3 [1] = type: in vivo, human
Renal clearance = type: in vivo, human
OATP1B1/1B3 [2] = conditions: ref 17 (pitavastatin), 19 (CP-I); cited from earlier work
[3] = after 20 mg and 75 mg CysA doses
OATP1B1/1B3 [4] = conditions: cited from earlier work
[5] = +CysA 20 mg, 1 h before probe cocktail
[6] = otherwise (conditions other than rosuvastatin with 1-hour interval)

AUCR: AUC0-24 Geometric mean ratio +CysA/Control (90% CI) (OATP1B1/1B3 [1]; [5]) | AUCR: AUC0-24 Geometric mean ratio +CysA/Control (90% CI) (OATP1B1/1B3 [1]; +CysA 75 mg (-1hr)) | AUCR: AUC0-24 Geometric mean ratio +CysA/Control (90% CI) (OATP1B1/1B3 [1]; +CysA 75 mg (-3hr)) | change of CLR by CysA (in words) (Renal clearance; [6]) | Compound | hepatic extraction (PBPK model analysis) (OATP1B1/1B3 [2]) | other results
1.39 | 2.16 | 1.81 | no significant change | CC(C)c1nc(N(C)S(C)(=O)=O)nc(-c2ccc(F)cc2)c1/C=C/[C@@H](O)C[C@@H](O)CC(=O)O [rosuvastatin] |  | change of CLR by CysA (in words) (Renal clearance; CysA administered with a 1-hour interval): decreased
1.64 | 3.46 | 2.38 |  | O=C(O)C[C@H](O)C[C@H](O)/C=C/c1c(C2CC2)nc2ccccc2c1-c1ccc(F)cc1 [pitavastatin] | 0.43 | 
1.43 | 1.77 | 1.85 | no significant change | CCCCC(=O)N(Cc1ccc(-c2ccccc2-c2nnn[nH]2)cc1)[C@H](C(=O)O)C(C)C [valsartan] |  | 

The remaining lines, values behind:

Compound | AUCR: AUC0-24 Geometric mean ratio +CysA/Control (90% CI) (OATP1B1/1B3 [1]; [5]) | AUCR: AUC0-24 Geometric mean ratio +CysA/Control (90% CI) (OATP1B1/1B3 [1]; +CysA 75 mg (-1hr)) | AUCR: AUC0-24 Geometric mean ratio +CysA/Control (90% CI) (OATP1B1/1B3 [1]; +CysA 75 mg (-3hr)) | change of CLR by CysA (in words) (Renal clearance; [6]) | hepatic extraction (PBPK model analysis) (OATP1B1/1B3 [2]) | other results
coproporphyrin I [CP-I] |  |  |  |  | 0.28 | 
CC[C@@H]1NC(=O)[C@H]([C@H](O)[C@H](C)C/C=C/CO)N(C)C(=O)[C@H](C(C)C)N(C)C(=O)[C@H](CC(C)C)N(C)C(=O)[C@H](CC(C)C)N(C)C(=O)[C@@H](C)NC(=O)[C@H](C)NC(=O)[C@H](CC(C)C)N(C)C(=O)[C@H](C(C)C)NC(=O)[C@H](CC(C)C)N(C)C(=O)CN(C)C1=O [AM1, Cyclosporin AM1] |  |  |  |  |  | Plasma concentrations relative to CysA (times lower) [3]: 10 times; inhibition of OATP1B1/1B3 (in words) (OATP1B1/1B3 [4]): inhibitor
CC1=C(CCC(=O)O)c2cc3nc(cc4[nH]c(cc5[nH]c(cc1n2)c(C)c5CCC(=O)O)c(CCC(=O)O)c4C)C(CCC(=O)O)=C3C.Cl.Cl [CP-III, Coproporphyrin III dihydrochloride] |  |  |  |  |  | reduction of CLR by CysA (Renal clearance; CysA 75 mg): 24%
